In paper PMC11792066, “Development of benzofuran-derived sulfamates as dual aromatase-steroid sulfatase inhibitors (DASIs): design, synthesis and biological evaluation” (RSC Medicinal Chemistry, 2025):
Values joined by “and” are separate entries in the source; they are usually repeats but may differ in a detail not shown here. Equal values may be shown once. Read-outs that look alike come from different tables or passages of the source.

Experiments:
aromatase (CYP19A1) = target: T1, aromatase (CYP19A1) (Homo sapiens, UniProt P11511); assay: Aromatase activity assay, modified tritiated water assay in JEG-3 cells; assay type: cell-based; conditions: 1 h incubation, triplicate
T1 construct: host or cells: JEG-3 cells
T1 sequence (P11511 1-503): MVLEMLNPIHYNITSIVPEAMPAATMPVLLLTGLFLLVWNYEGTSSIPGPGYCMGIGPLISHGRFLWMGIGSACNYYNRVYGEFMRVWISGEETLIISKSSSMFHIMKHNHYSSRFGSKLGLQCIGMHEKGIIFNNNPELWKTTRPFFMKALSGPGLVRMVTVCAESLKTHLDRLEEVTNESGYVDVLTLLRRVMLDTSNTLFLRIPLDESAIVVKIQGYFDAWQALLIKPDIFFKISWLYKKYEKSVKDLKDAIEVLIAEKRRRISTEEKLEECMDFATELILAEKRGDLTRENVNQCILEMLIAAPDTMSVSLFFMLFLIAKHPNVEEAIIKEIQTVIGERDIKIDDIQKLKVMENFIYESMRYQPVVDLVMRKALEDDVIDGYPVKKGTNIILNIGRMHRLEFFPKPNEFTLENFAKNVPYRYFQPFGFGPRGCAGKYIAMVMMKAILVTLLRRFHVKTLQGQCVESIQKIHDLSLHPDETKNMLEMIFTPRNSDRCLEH
Procedure: Seven compounds including the two carbamate side products were investigated for their aromatase inhibitory activity at 10 nM using the previously reported modified tritiated water assay.[20]
(§1) JEG-3 cells (ATCC) were cultured in Eagle's minimal essential medium (EMEM) supplemented with 10% fetal calf serum (FCS). The cells were maintained at 37 °C in a humidified incubator with 5% CO2. Then, the cells were cultured to approximately 80% confluence before any treatments were applied.
The aromatase activity was measured using a modified tritiated water assay. The JEG-3 cells were cultured in six-well plates in EMEM until reaching 80% confluence. The substrate androst-4-ene-3,17-dione [1β-^3H] was added to each well in a serum-free medium. In the presence and absence of dual inhibitors (at concentrations ranging from 0.001 to 10 nM), the cells were incubated at 37 °C for 1 hour. The reaction was stopped by placing the plates on ice for 5 minutes. The medium (500 μL) was obtained, vortexed with 2% dextran-treated charcoal in PBS, and centrifuged at 4000 rpm. [^3H]H2O in the supernatant was quantified using scintillation counting. The aromatase activity was normalized to protein concentration, determined by the Pierce BCA assay kit (Thermo Fisher Scientific), and expressed as pmol of product per mg of protein per hour.

steroid sulfatase (STS) = target: T2, steroid sulfatase (STS) (Homo sapiens, UniProt P08842); assay: Steroid sulfatase activity assay, cell-free JEG-3 lysate, [3H]oestrone sulfate substrate; assay type: biochemical; conditions: for IC50: 20 μM E1S, 37 °C, 1 h, triplicate
T2 construct: lysates from JEG-3 cells, known to have high endogenous STS activity; host or cells: JEG-3 cell lysate (supernatant after centrifugation)
T2 sequence (P08842 22-583): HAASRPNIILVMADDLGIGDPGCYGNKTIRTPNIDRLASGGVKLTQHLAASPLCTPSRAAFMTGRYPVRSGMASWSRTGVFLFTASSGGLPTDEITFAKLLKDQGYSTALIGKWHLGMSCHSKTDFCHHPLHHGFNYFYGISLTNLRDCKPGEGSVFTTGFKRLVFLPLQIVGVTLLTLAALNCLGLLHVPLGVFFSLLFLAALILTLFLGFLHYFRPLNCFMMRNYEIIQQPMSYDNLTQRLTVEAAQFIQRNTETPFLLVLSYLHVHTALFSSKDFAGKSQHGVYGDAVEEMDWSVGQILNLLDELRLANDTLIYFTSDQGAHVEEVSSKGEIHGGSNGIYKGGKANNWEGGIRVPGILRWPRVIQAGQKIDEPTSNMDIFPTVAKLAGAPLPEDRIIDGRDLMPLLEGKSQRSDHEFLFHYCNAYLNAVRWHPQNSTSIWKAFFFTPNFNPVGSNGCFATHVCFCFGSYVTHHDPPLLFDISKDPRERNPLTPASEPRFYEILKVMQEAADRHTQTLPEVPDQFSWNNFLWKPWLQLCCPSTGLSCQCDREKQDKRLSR
Procedure: as §1
STS activity was measured using an in vitro, cell-free assay. Briefly, lysates from JEG-3 cells, known to have high endogenous STS activity, were prepared by lysing the cells with a buffer (50 mM Tris-HCl, pH 7.4, and 1 mM EDTA). After centrifugation, the supernatant was collected and protein concentrations were determined using a BCA assay kit.
For the steroid sulfatase assay, 125 μg of JEG-3 lysate was incubated with the substrate [^3H]oestrone sulfate (E1S, 4 × 10^5 dpm) diluted to a final concentration of 20 μM using non-radioactive E1S. The mixture was incubated in the presence of different concentrations of inhibitors (ranging from 10^−11 M to 10^−5 M) at 37 °C for 1 hour. After incubation, the reaction was stopped by placing the tubes on ice, and the estrone product formed was separated from the substrate by extraction with toluene. [^14C]oestrone was added to the organic phase as an internal standard to monitor recovery and procedural losses.
The organic phase was subjected to liquid scintillation counting to measure both ^3H and ^14C. The amount of E1S hydrolysed was calculated from the ^3H counts, corrected for recovery using the ^14C standard, and converted into molar concentrations of hydrolysed product. The inhibitory activity of test compounds was expressed as the IC50 value, representing the concentration required to inhibit 50% of the STS activity.

[1] = JEG-3 cells, read-out: Arom IC50

Row | SMILES | IC50 (aromatase (CYP19A1); [1]) | STS inhibitory activity (in words) (steroid sulfatase (STS)) | IC50 (aromatase (CYP19A1); Arom IC50, JEG-3 cells) | IC50 (steroid sulfatase (STS))
1 | NS(=O)(=O)Oc1ccc(C(c2cc3cc(Cl)ccc3o2)n2cncn2)cc1 (stereo not drawn) [8a, 4-((5-Chlorobenzofuran-2-yl)(1H-1,2,4-triazol-1-yl)methyl)phenyl sulfamate] | > 10 nM | neither the triazole sulfamates (6, 7, 8a, 9, 10a) nor the triazole carbamates (8b, 10b) displayed STS inhibitory activity |  | 
2 | NC(=O)Oc1ccc(C(c2cc3cc(Cl)ccc3o2)n2cncn2)cc1 (stereo not drawn) [8b] |  | neither the triazole sulfamates (6, 7, 8a, 9, 10a) nor the triazole carbamates (8b, 10b) displayed STS inhibitory activity | 4.1 nM | 
3 | N#Cc1ccc(C(c2cc3ccc(OS(N)(=O)=O)cc3o2)n2cncn2)cc1 (stereo not drawn) [10a, 2-((4-Cyanophenyl)(1H-1,2,4-triazol-1-yl)methyl)benzofuran-6-yl sulfamate] | 1.52 nM | neither the triazole sulfamates (6, 7, 8a, 9, 10a) nor the triazole carbamates (8b, 10b) displayed STS inhibitory activity |  | 
4 | N#Cc1ccc(C(c2cc3ccc(OC(N)=O)cc3o2)n2cncn2)cc1 (stereo not drawn) [10b, 2-((4-Cyanophenyl)(1H-1,2,4-triazol-1-yl)methyl)benzofuran-6-yl carbamate] |  | neither the triazole sulfamates (6, 7, 8a, 9, 10a) nor the triazole carbamates (8b, 10b) displayed STS inhibitory activity | 0.65 nM | 
5 | NS(=O)(=O)Oc1ccc2cc(C(=O)c3ccc(F)cc3)oc2c1 [18a, 2-(4-Fluorobenzoyl)benzofuran-6-yl sulfamate] | > 1000 nM |  |  | 740 nM
6 | NS(=O)(=O)Oc1ccc2cc(C(=O)c3ccc(Cl)cc3)oc2c1 [18b, 2-(4-Chlorobenzoyl)benzofuran-6-yl sulfamate] | > 1000 nM |  |  | 410 nM
7 | NS(=O)(=O)Oc1ccc2cc(C(=O)c3ccc(Br)cc3)oc2c1 [18c, 2-(4-Bromobenzoyl)benzofuran-6-yl sulfamate] | > 1000 nM |  |  | 510 nM
8 | NS(=O)(=O)Oc1ccc2cc(C(=O)c3ccc(Cl)cc3Cl)oc2c1 [18d, 2-(2,4-Dichlorobenzoyl)benzofuran-6-yl sulfamate] | > 1000 nM |  |  | 310 nM
9 | COc1ccc(C(=O)c2cc3ccc(OS(N)(=O)=O)cc3o2)cc1 [18e, 2-(4-Methoxybenzoyl)benzofuran-6-yl sulfamate] | > 1000 nM |  |  | 115 nM
10 | N#Cc1ccc(C(=O)c2cc3ccc(OS(N)(=O)=O)cc3o2)cc1 [18f, 2-(4-Cyanobenzoyl)benzofuran-6-yl sulfamate] | > 1000 nM |  |  | 280 nM
11 | Cc1c(C(=O)c2ccc(F)cc2)oc2cc(OS(N)(=O)=O)ccc12 [19a, 2-(4-Fluorobenzoyl)-3-methylbenzofuran-6-yl sulfamate] | 50 nM |  |  | 654 nM
12 | Cc1c(C(=O)c2ccc(Cl)cc2)oc2cc(OS(N)(=O)=O)ccc12 [19b, 2-(4-Chlorobenzoyl)-3-methylbenzofuran-6-yl sulfamate] | 137 nM |  |  | 48 nM
13 | Cc1c(C(=O)c2ccc(Br)cc2)oc2cc(OS(N)(=O)=O)ccc12 [19c, 2-(4-Bromobenzoyl)-3-methylbenzofuran-6-yl sulfamate] | 22 nM |  |  | 830 nM
14 | Cc1c(C(=O)c2ccc(Cl)cc2Cl)oc2cc(OS(N)(=O)=O)ccc12 [19d, 2-(2,4-Dichlorobenzoyl)-3-methylbenzofuran-6-yl sulfamate] | 20 nM |  |  | 1500 nM
15 | COc1ccc(C(=O)c2oc3cc(OS(N)(=O)=O)ccc3c2C)cc1 [19e, 2-(4-Methoxybenzoyl)-3-methylbenzofuran-6-yl sulfamate] | 35 nM |  |  | 164 nM
16 | N#Cc1ccc(C(c2ccc(C#N)cc2)n2cncn2)cc1 [Letrozole, reference compound] |  |  |  | > 1000 nM
17 | NS(=O)(=O)Oc1ccc2c3c(c(=O)oc2c1)CCCCC3 [STX64, Irosustat, reference compound] | > 1000 nM |  |  | 
18 | NS(=O)(=O)Oc1ccc2cc(C(c3ccc(Cl)cc3)n3cncn3)oc2c1 (stereo not drawn) [compound 6, 2-((4-Chlorophenyl)(1H-1,2,4-triazol-1-yl)methyl)benzofuran-6-yl sulfamate] | 1.4 nM | neither the triazole sulfamates (6, 7, 8a, 9, 10a) nor the triazole carbamates (8b, 10b) displayed STS inhibitory activity |  | 
19 | NS(=O)(=O)Oc1ccc2oc(C(c3ccc(Cl)cc3)n3cncn3)cc2c1 (stereo not drawn) [compound 7, 2-((4-Chlorophenyl)(1H-1,2,4-triazol-1-yl)methyl)benzofuran-5-yl sulfamate] | 5.49 nM | neither the triazole sulfamates (6, 7, 8a, 9, 10a) nor the triazole carbamates (8b, 10b) displayed STS inhibitory activity |  | 
20 | NS(=O)(=O)Oc1ccc2cc(C(c3ccc(F)cc3)n3cncn3)oc2c1 (stereo not drawn) [compound 9, 2-((4-Fluorophenyl)(1H-1,2,4-triazol-1-yl)methyl)benzofuran-6-yl sulfamate] | 8.4 nM | neither the triazole sulfamates (6, 7, 8a, 9, 10a) nor the triazole carbamates (8b, 10b) displayed STS inhibitory activity |  | 
21 | NC(=O)Oc1ccc2cc(C(=O)c3ccc(Cl)cc3)oc2c1 [compound 20, 2-(4-Chlorobenzoyl)benzofuran-6-yl carbamate] | ≥ 1000 nM |  |  | ≥ 1000 nM and 1220 nM
22 | Cc1c(C(=O)c2ccc(Cl)cc2)oc2cc(OC(N)=O)ccc12 [compound 21, 2-(4-Chlorobenzoyl)-3-methylbenzofuran-6-yl carbamate] | ≥ 1000 nM |  |  | ≥ 1000 nM and 980 nM
